Test results as given in ChEMBL document CHEMBL1201862, “PubChem BioAssay data set” (2004).
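Following 48 hours of exposure in 96-well plates, responses at five concentrations were used to interpolate endpoints linearly. Abbreviation: GI50, concentration required for 50% inhibition of growth.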 Active and inactive are the calls of the source. Rule as the data show it: active = GI50 up to about 1.1 µM and inactive = higher.

Columns and labels:
Assay in all cases: NCI-60 cell line screen, 48 h
COLO 205 = tested on: COLO 205
DMS-114 = tested on: DMS-114
DMS-273 = tested on: DMS-273
HCT-116 = tested on: HCT-116
HCT-15 = tested on: HCT-15
HL-60 = tested on: HL-60
HOP-92 = tested on: HOP-92
LOX IMVI = tested on: LOX IMVI
NCI/ADR-RES = tested on: NCI/ADR-RES
OVCAR-3 = tested on: OVCAR-3
OVCAR-4 = tested on: OVCAR-4
RXF 393 = tested on: RXF 393
SF-295 = tested on: SF-295
SNB-75 = tested on: SNB-75
UACC-62 = tested on: UACC-62
ACHN = tested on: ACHN
DU-145 = tested on: DU-145
MDA-N = tested on: MDA-N
TK-10 = tested on: TK-10
LXFL 529 = tested on: LXFL 529

C=C1C(=O)OC2C=C(C)CC3C=C(CCC=C(C)CCC12)C(=O)O3 (stereo not drawn)
GI50 (COLO 205): 53.1 µM (inactive) | GI50 (DMS-114): 65.9 µM (inactive) | GI50 (DMS-273): 68.1 µM (inactive) | GI50 (HCT-116): 33.1 µM (inactive) | GI50 (HCT-15): 56.6 µM | GI50 (HL-60): 15.7 µM (inactive) | GI50 (HOP-92): 52.8 µM (inactive) | GI50 (LOX IMVI): 32.5 µM (inactive) | GI50 (NCI/ADR-RES): 62.8 µM (inactive) | GI50 (OVCAR-3): 56.8 µM (inactive) | GI50 (OVCAR-4): 72.3 µM (inactive) | GI50 (RXF 393): 31.3 µM (inactive) | GI50 (SF-295): 79.4 µM (inactive) | GI50 (SNB-75): 92.5 µM (inactive) | GI50 (UACC-62): 54.2 µM (inactive)

C=CCNC(=O)CN(CC(=O)OC)C1CCCCC1N(CC(=O)OC)CC(=O)OC (stereo not drawn)
GI50 (ACHN): > 100 µM (inactive) | GI50 (DU-145): > 100 µM (inactive) | GI50 (HCT-116): > 100 µM (inactive) | GI50 (HCT-15): > 100 µM | GI50 (HL-60): > 100 µM (inactive) | GI50 (HOP-92): > 100 µM (inactive) | GI50 (LOX IMVI): > 100 µM (inactive) | GI50 (MDA-N): > 100 µM (inactive) | GI50 (NCI/ADR-RES): > 100 µM (inactive) | GI50 (OVCAR-3): > 100 µM (inactive) | GI50 (RXF 393): > 100 µM (inactive) | GI50 (SF-295): > 100 µM (inactive) | GI50 (TK-10): > 100 µM (inactive) | GI50 (UACC-62): > 100 µM (inactive)

CC(C)CNC1=NCC(C)S1 (stereo not drawn)
GI50 (ACHN): > 100 µM (inactive) | GI50 (COLO 205): > 100 µM (inactive) | GI50 (DU-145): > 100 µM (inactive) | GI50 (HCT-116): > 100 µM (inactive) | GI50 (HCT-15): > 100 µM | GI50 (HL-60): > 100 µM (inactive) | GI50 (HOP-92): > 100 µM (inactive) | GI50 (LOX IMVI): > 100 µM (inactive) | GI50 (MDA-N): > 100 µM (inactive) | GI50 (OVCAR-3): > 100 µM (inactive) | GI50 (RXF 393): > 100 µM (inactive) | GI50 (SF-295): > 100 µM (inactive) | GI50 (SNB-75): > 100 µM (inactive) | GI50 (TK-10): > 100 µM (inactive) | GI50 (UACC-62): > 100 µM (inactive)

O=C1C(Cl)N(c2ccccc2Cl)C1c1c[nH]c2ccccc12 (stereo not drawn)
GI50 (COLO 205): > 100 µM (inactive) | GI50 (DMS-114): > 100 µM (inactive) | GI50 (HCT-116): > 100 µM (inactive) | GI50 (HL-60): > 100 µM (inactive) | GI50 (HOP-92): > 100 µM (inactive) | GI50 (OVCAR-3): > 100 µM (inactive) | GI50 (OVCAR-4): > 100 µM (inactive) | GI50 (RXF 393): > 100 µM (inactive) | GI50 (SF-295): > 100 µM (inactive) | GI50 (SNB-75): 86.9 µM (inactive) | GI50 (TK-10): > 100 µM (inactive) | GI50 (UACC-62): > 100 µM (inactive)

CNC(=O)N(C)COC
GI50 (ACHN): > 100 µM (inactive) | GI50 (COLO 205): > 100 µM (inactive) | GI50 (DMS-114): > 100 µM (inactive) | GI50 (HCT-116): > 100 µM (inactive) | GI50 (HCT-15): > 100 µM | GI50 (HL-60): > 100 µM (inactive) | GI50 (LOX IMVI): > 100 µM (inactive) | GI50 (LXFL 529): > 100 µM (inactive) | GI50 (OVCAR-3): 32.3 µM (inactive) | GI50 (OVCAR-4): > 100 µM (inactive) | GI50 (SF-295): > 100 µM (inactive) | GI50 (SNB-75): > 100 µM (inactive) | GI50 (UACC-62): > 100 µM (inactive)

C#CC[N+](CCO)(CCO)CCCCCCCCCCCCCCCCCC
GI50 (COLO 205): 11.2 µM (inactive) | GI50 (DMS-114): 10.3 µM (inactive) | GI50 (DMS-273): 4.9 µM (inactive) | GI50 (HCT-116): 8.41 µM (inactive) | GI50 (HCT-15): 15.3 µM | GI50 (HL-60): 1.55 µM (inactive) | GI50 (HOP-92): 2 µM (inactive) | GI50 (LOX IMVI): 4.81 µM (inactive) | GI50 (NCI/ADR-RES): 20.2 µM (inactive) | GI50 (OVCAR-3): 13.5 µM (inactive) | GI50 (OVCAR-4): 10.5 µM (inactive) | GI50 (RXF 393): 2.48 µM (inactive) | GI50 (SF-295): 7.76 µM (inactive) | GI50 (SNB-75): 4.16 µM (inactive) | GI50 (UACC-62): 11 µM (inactive)

Cc1cn(Cc2cn(CC3OC(n4cc(C)c(=O)[nH]c4=O)CC3O)nn2)c(=O)[nH]c1=O (stereo not drawn)
GI50 (ACHN): > 100 µM (inactive) | GI50 (COLO 205): > 100 µM (inactive) | GI50 (DU-145): > 100 µM (inactive) | GI50 (HCT-116): > 100 µM (inactive) | GI50 (HCT-15): > 100 µM | GI50 (MDA-N): > 100 µM (inactive) | GI50 (NCI/ADR-RES): > 100 µM (inactive) | GI50 (OVCAR-3): > 100 µM (inactive) | GI50 (OVCAR-4): > 100 µM (inactive) | GI50 (RXF 393): > 100 µM (inactive) | GI50 (SF-295): > 100 µM (inactive) | GI50 (SNB-75): > 100 µM (inactive) | GI50 (TK-10): > 100 µM (inactive) | GI50 (UACC-62): > 100 µM (inactive)

CCOc1ccc2nc(NC(=O)C(=O)C(C(=O)c3ccccc3F)C3OC(=O)c4ccccc43)sc2c1 (stereo not drawn)
GI50 (ACHN): 33.2 µM (inactive) | GI50 (COLO 205): 15.6 µM (inactive) | GI50 (DMS-273): 19.1 µM (inactive) | GI50 (HCT-116): 17.6 µM (inactive) | GI50 (HCT-15): 14.5 µM | GI50 (HL-60): 16.8 µM (inactive) | GI50 (LXFL 529): 19.7 µM (inactive) | GI50 (OVCAR-4): 19.2 µM (inactive) | GI50 (RXF 393): 21.5 µM (inactive) | GI50 (SNB-75): 15.1 µM (inactive) | GI50 (TK-10): 23.3 µM (inactive) | GI50 (UACC-62): 14.6 µM (inactive)

O=C(O)CN1CCN(CC(=O)O)CCN(CC(=O)O)CC1
GI50 (ACHN): > 100 µM (inactive) | GI50 (COLO 205): 2.57 µM (inactive) | GI50 (DU-145): > 100 µM (inactive) | GI50 (HCT-116): 3.7 µM (inactive) | GI50 (HCT-15): 4.53 µM | GI50 (HL-60): 1.69 µM (inactive) | GI50 (HOP-92): 38.2 µM (inactive) | GI50 (LOX IMVI): > 24.1 µM (inactive) | GI50 (MDA-N): 3.7 µM (inactive) | GI50 (OVCAR-3): > 94.6 µM (inactive) | GI50 (OVCAR-4): 34.1 µM (inactive) | GI50 (RXF 393): 5.64 µM (inactive) | GI50 (SF-295): 37.5 µM (inactive) | GI50 (SNB-75): 12.6 µM (inactive) | GI50 (TK-10): > 48.8 µM (inactive) | GI50 (UACC-62): 7.98 µM (inactive)

O=c1c2cccnc2oc2c(Cl)cc(-c3nnn[nH]3)cc12
GI50 (ACHN): > 100 µM (inactive) | GI50 (COLO 205): > 100 µM (inactive) | GI50 (DU-145): > 100 µM (inactive) | GI50 (HCT-116): > 100 µM (inactive) | GI50 (HCT-15): > 100 µM | GI50 (HL-60): > 100 µM (inactive) | GI50 (HOP-92): 68.7 µM (inactive) | GI50 (MDA-N): > 100 µM (inactive) | GI50 (NCI/ADR-RES): > 100 µM (inactive) | GI50 (OVCAR-3): > 100 µM (inactive) | GI50 (OVCAR-4): > 100 µM (inactive) | GI50 (RXF 393): > 100 µM (inactive) | GI50 (SNB-75): > 100 µM (inactive) | GI50 (TK-10): > 100 µM (inactive) | GI50 (UACC-62): > 100 µM (inactive)

CC1OC(CO)(n2cnc3c(N)ncnc32)C(O)C1O (stereo not drawn)
GI50 (COLO 205): > 100 µM (inactive) | GI50 (DMS-114): > 100 µM (inactive) | GI50 (DMS-273): > 100 µM (inactive) | GI50 (HCT-116): > 100 µM (inactive) | GI50 (HCT-15): > 100 µM | GI50 (HL-60): > 100 µM (inactive) | GI50 (HOP-92): > 100 µM (inactive) | GI50 (LOX IMVI): > 100 µM (inactive) | GI50 (NCI/ADR-RES): > 100 µM (inactive) | GI50 (OVCAR-3): > 100 µM (inactive) | GI50 (OVCAR-4): > 100 µM (inactive) | GI50 (RXF 393): > 100 µM (inactive) | GI50 (SF-295): > 100 µM (inactive) | GI50 (SNB-75): > 100 µM (inactive) | GI50 (UACC-62): > 100 µM (inactive)

C=C(/C=C/C=C(\C)CCC=C(C)C)[C@@H]1CC[C@]2([C@H](CCCO)/C(=C(/C)C=O)CC[C@]2(C)O)[C@@H]1O
GI50 (ACHN): > 100 µM (inactive) | GI50 (COLO 205): 11 µM (inactive) | GI50 (DMS-273): 14.6 µM (inactive) | GI50 (HCT-15): 19.4 µM | GI50 (HL-60): 11.5 µM (inactive) | GI50 (HOP-92): < 0.01 µM (active) | GI50 (LOX IMVI): 14.7 µM (inactive) | GI50 (LXFL 529): 19.1 µM (inactive) | GI50 (RXF 393): 22.6 µM (inactive) | GI50 (SF-295): 15.6 µM (inactive) | GI50 (SNB-75): 91.6 µM (inactive) | GI50 (TK-10): 31.3 µM (inactive)
